We go through nine compounds from patent EP4755880A1, “SUBSTITUTED NITROGEN-CONTAINING BICYCLIC COMPOUND AND USE THEREOF” (Sunshine Lake Pharma Co., Ltd., priority 2023, dated 2025).

Series [1] in a line: Pharmacokinetics in mice after intravenous injection or gavage. As to conditions: BALB/c, mouse, plasma.
Description: (§1) The compounds of the present invention were administered to test animals in the form of 5% DMSO + 30% PEG400 + 65% physiological saline, 10% DMSO + 10% Kolliphor HS15 + 80% Saline, 10% DMSO + 89% (25% SBE-B-CD) + (2% HCl), 20% PEG400 + 80% sterile water for injection, or 10% DMA+ 10% HS15 + 30% PEG400 + 50% sterile aqueous solution for injection. Animals were fasted for 12 hours before administration but had free access to water. For the intravenous administration group, the dose was 1 mg/kg. Blood samples (approximately 0.15 mL) were collected intravenously at the following time points after administration: 0.083, 0.25, 0.5, 1.0, 2.0, 4.0, 6.0, 8.0 and 24 h (dogs) or 0.083, 0.25, 0.5, 1.0, 2.0, 5.0, 7.0 and 24 h (mice and rats) or 0.083, 0.25, 0.5, 1.0, 2.0, 6.0, 8.0 and 24 h (monkeys). EDTA-K2 was pre-added to the blood collection tube as an anticoagulant. The blood samples were centrifuged at 12,000 rpm for 2 minutes, and plasma was collected and stored at -20 °C or - 70 °C. For the gavage administration group, the dosage was 1 mg/kg (mice, dogs, and monkeys) or 5 mg/kg (rats). After administration, venous blood samples (approximately 0.15 mL) were collected at the following time points: 0.25, 0.5, 1.0, 2.0, 4.0, 6.0, 8.0, and 24 h (dogs) or 0.25, 0.5, 1.0, 2.0, 5.0, 7.0, and 24 h (mice and rats) or 0.25, 0.5, 1.0, 2.0, 6.0, 8.0, and 24 h (monkeys). EDTA-K2 was pre-added to the blood collection tube as an anticoagulant. The blood samples were centrifuged at 12,000 rpm for 2 minutes, and plasma was collected and stored at -20 °C or -70 °C.
(§2) The collected plasma samples were processed (frozen plasma was thawed at room temperature, vortexed for 15 s to mix, 10-20 µL of plasma was taken, 120-150 µL of acetonitrile solution containing internal standard was added, vortexed for 5 min to mix, centrifuged at 4,000 rpm for 5 min, 100 µL of supernatant was taken, and 120-150 Ml/water (v/v = 1/1) was added and mixed). The concentration of compounds in the plasma was then analyzed by LC-MS/MS.
In another series the test system is MDA-MB-436 cells. Put plainly: Inhibition of proliferation of MDA-MB-436 cells (CellTiter-Glo). The format is cell-based. As to conditions: Homo sapiens, MDA-MB-436, 168 h, 7 days incubation. The method, then: • 1. Cell Pretreatment: MDA-MB-436 cells were cultured in DMEM + 10% FBS + 1% penicillin-dip antibiotics + 1% ITS + 16 µg/ml glutathione. Cells in the logarithmic growth phase were digested with trypsin-EDTA, centrifuged and resuspended, and then seeded at a rate of 500-1000 cells/well in sterile 96-well opaque plates, 90 µl per well. After seeding, the cell culture plates were incubated overnight at 37°C with 5% CO2 before drug treatment. • 2. Drug treatment of MDA-MB-436 cells: The test compound was prepared as a 10 mM stock solution using DMSO. The drug was then diluted to a 10× working solution using growth medium (the compound was started at 100 µM and diluted 4-fold to achieve 9 concentrations). 10 µl of the 10× working solution was added to each well to achieve final drug concentrations of 10000, 2500, 625, 156, 39, 9.7, 2.4, 0.61, and 0.152 nM, respectively. Blank control wells containing the same DMSO concentration were also included, with three replicates for each concentration. After drug addition, the cells were incubated at 37°C with 5% CO2 for 7 days. • 3. After incubation, 100 µl of CellTiter-Glo® Reagent was added to each well, and luminescence was measured. The IC50 value of cell proliferation inhibition was calculated using GraphPad software to fit the curve. Table E: Results of the inhibitory effect of the compound of this invention on the proliferation of MDA-MB-436 cells.
A general note: In ATP-based viability assays light output follows the ATP content of the culture.

The next series has as its target PARP1 (Homo sapiens, UniProt P09874). In words: Inhibition of PARP1 enzyme activity (ELISA, chemiluminescence). The format is biochemical. The following applies: for IC50: ELISA, histone-coated plate, NAD+, 60 min at 25 °C; for Selectivity PARP2/PARP1: ratio of PARP2 IC50 to PARP1 IC50. Background: An ELISA detects its analyte on a solid surface through an enzyme-linked reagent.

A further series deals with PARP2 (Homo sapiens, UniProt Q9UGN5). Put plainly: biochemical.
Chain of PARP2 (Q9UGN5 whole entry): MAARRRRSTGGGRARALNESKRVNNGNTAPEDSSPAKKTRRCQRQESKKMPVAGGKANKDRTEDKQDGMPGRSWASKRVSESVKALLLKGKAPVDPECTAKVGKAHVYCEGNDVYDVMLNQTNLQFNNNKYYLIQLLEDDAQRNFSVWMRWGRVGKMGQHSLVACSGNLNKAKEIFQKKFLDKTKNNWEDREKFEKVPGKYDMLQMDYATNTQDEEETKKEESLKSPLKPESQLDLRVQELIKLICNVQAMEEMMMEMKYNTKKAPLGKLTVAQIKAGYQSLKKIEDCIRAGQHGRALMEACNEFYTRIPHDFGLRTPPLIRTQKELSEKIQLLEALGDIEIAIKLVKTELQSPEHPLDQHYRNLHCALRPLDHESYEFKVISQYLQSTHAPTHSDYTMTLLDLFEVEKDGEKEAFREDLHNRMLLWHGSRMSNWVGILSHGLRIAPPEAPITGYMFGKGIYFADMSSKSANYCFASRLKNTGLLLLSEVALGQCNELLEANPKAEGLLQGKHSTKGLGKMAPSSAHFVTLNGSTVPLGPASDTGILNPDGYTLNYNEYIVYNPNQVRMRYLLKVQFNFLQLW
The test system of another series is DLD-1 BRCA2(-/-) cells. Put plainly: Inhibition of proliferation of DLD-1 BRCA2(-/-) cells (CTG method). The following applies: Homo sapiens, DLD-1, 168 h; 7 days incubation, CellTiter-Glo. The format is cell-based. The procedure, abridged:
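DLD-1 BRCA2(-/-) cells, 1,000 per well, attached overnight, then exposed to compound at final 10000 to 0.152 nM (4-fold series) in triplicate for 7 days at 37 °C, 5% CO2. Viability by CellTiter-Glo luminescence; IC50 for proliferation inhibition from a fitted curve.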

The nature of series [2]: Pharmacokinetics in SD rats after intravenous injection or gavage. As to conditions: rat, plasma.
Description: as §1, §2
Table D Pharmacokinetic parameters of compounds of the present invention in SD rats

Chain of PARP1 (P09874 whole entry): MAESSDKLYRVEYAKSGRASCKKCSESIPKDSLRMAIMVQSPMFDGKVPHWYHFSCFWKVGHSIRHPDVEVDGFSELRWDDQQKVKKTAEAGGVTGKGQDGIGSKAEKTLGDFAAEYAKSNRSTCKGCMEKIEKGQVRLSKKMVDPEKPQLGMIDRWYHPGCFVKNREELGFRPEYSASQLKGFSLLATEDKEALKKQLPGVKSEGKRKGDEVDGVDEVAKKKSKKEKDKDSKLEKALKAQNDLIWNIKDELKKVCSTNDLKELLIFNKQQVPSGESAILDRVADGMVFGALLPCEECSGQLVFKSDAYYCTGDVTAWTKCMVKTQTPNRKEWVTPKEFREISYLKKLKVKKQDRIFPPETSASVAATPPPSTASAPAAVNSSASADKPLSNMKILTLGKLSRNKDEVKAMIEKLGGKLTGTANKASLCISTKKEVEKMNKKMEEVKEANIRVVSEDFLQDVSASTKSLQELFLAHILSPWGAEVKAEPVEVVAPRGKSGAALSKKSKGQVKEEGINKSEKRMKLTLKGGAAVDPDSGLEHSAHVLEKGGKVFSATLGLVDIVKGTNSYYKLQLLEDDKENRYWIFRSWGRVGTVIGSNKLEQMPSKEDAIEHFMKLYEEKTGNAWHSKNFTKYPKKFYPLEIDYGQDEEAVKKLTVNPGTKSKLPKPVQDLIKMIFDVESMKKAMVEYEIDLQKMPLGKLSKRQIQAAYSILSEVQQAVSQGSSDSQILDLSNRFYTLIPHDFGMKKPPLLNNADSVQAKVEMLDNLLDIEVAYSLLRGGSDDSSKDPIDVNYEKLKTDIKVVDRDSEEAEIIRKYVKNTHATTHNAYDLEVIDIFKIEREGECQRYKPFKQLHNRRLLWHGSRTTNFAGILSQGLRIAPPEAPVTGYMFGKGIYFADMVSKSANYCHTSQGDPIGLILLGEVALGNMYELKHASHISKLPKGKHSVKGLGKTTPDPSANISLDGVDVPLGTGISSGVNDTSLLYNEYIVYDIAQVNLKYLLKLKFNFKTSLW

Regarding `CNC(=O)c1ccc(N2CCN(Cc3cc(-c4ccccc4)c4nc(C)c(=O)[nH]c4c3)CC2)c(F)n1` [Example 2, 6-fluoro-N-methyl-5-(4-((2-methyl-3-oxo-8-phenyl-3,4-dihydroquinoxalin-6-yl)methyl)piperazin-1-yl)picolinamide], the AUC(0-t) – broadly, exposure summed from dosing to a finite time, without extrapolation to infinity – in series [1] (iv, 2 mg/kg) was determined as 2870 ng·h/mL; in series [1] (po, 5 mg/kg), 8560 ng·h/mL; in series [2] (iv, 1 mg/kg), 1090 ng·h/mL; in series [2] (po, 5 mg/kg), 5610 ng·h/mL. The Cmax (in general, the maximum level reached in the sampled fluid or tissue) in series [1] (iv, 2 mg/kg) was 942 ng/mL; in series [1] (po, 5 mg/kg), 1450 ng/mL; in series [2] (iv, 1 mg/kg), 534 ng/mL; in series [2] (po, 5 mg/kg), 719 ng/mL. Moreover, the half-life (as a rule, the time needed for the level to fall by half in the phase considered) in series [1] (iv, 2 mg/kg) was 3.1 h; in series [1] (po, 5 mg/kg) it was 3.9 h; in series [2] (iv, 1 mg/kg), 2.1 h; in series [2] (po, 5 mg/kg) it was 3.4 h. The IC50 (as a rule, the point on the concentration scale where inhibition reaches its midpoint) in the series on MDA-MB-436 cells stood at 20.2 nM; against PARP1, 1.5 nM; at PARP2, 3130 nM; in the series with DLD-1 BRCA2(-/-) cells it was 22.9 nM. The “Selectivity PARP2/PARP1” value at PARP1 was 2084.7.
On to `CNC(=O)c1ccc(N2CCN(Cc3cc(OC(C)C)c4nc(C)c(=O)[nH]c4c3)CC2)c(F)n1` [Example 3, 6-fluoro-5-(4-((8-isopropoxy-2-methyl-3-oxo-3,4-dihydroquinoxalin-6-yl)methyl)piperazin-1-yl)-N-methylpicolinamide], for which the AUC(0-t) in series [1] (iv, 2 mg/kg) came out at 2140 ng·h/mL; in series [1] (po, 5 mg/kg) it was 4890 ng·h/mL; in series [2] (iv, 1 mg/kg), 1990 ng·h/mL; in series [2] (po, 5 mg/kg) it was 13100 ng·h/mL. Moreover, the Cmax was 1220 ng/mL in series [1] (iv, 2 mg/kg); 1780 ng/mL in series [1] (po, 5 mg/kg); 653 ng/mL in series [2] (iv, 1 mg/kg); 1400 ng/mL in series [2] (po, 5 mg/kg). The half-life in series [1] (iv, 2 mg/kg) is 1.9 h; in series [1] (po, 5 mg/kg) it was 2.4 h; in series [2] (iv, 1 mg/kg), 3.4 h; in series [2] (po, 5 mg/kg), 3.7 h. Further, the 50% inhibitory concentration (IC50) with MDA-MB-436 cells was 7.5 nM; on PARP1, 2.67 nM; against PARP2, 142 nM; in the series on DLD-1 BRCA2(-/-) cells it was 4.6 nM. Moreover, the “Selectivity PARP2/PARP1” value at PARP1 stood at 53.2.
For `CC#Cc1cc(CN2CCN(c3ccc(C(=O)NC)nc3F)CC2)cc2[nH]c(=O)c(C)nc12` [Example 7, 6-fluoro-N-methyl-5-(4-((2-methyl-3-oxo-8-(prop-1-yn-1-yl)-3,4-dihydroquinoxalin-6-yl)methyl)piperazin-1-yl)picolinamide], the AUC(0-t) in series [1] (iv, 2 mg/kg) was found to be 2140 ng·h/mL; in series [1] (po, 5 mg/kg) it was 6370 ng·h/mL; in series [2] (iv, 1 mg/kg) it was 3370 ng·h/mL; in series [2] (po, 5 mg/kg), 22400 ng·h/mL. For the same compound, the Cmax in series [1] (iv, 2 mg/kg) was determined as 1300 ng/mL; in series [1] (po, 5 mg/kg) it was 3230 ng/mL; in series [2] (iv, 1 mg/kg) it was 1170 ng/mL; in series [2] (po, 5 mg/kg), 2600 ng/mL. The half-life in series [1] (iv, 2 mg/kg) is 1.6 h; in series [1] (po, 5 mg/kg), 1.8 h; in series [2] (iv, 1 mg/kg), 3.4 h; in series [2] (po, 5 mg/kg), 3.3 h. For the same compound, the IC50 is 10.7 nM in the series with MDA-MB-436 cells, 1.3 nM against PARP1, 472 nM at PARP2 and 2.5 nM in the series with DLD-1 BRCA2(-/-) cells. On PARP1, the “Selectivity PARP2/PARP1” value was 362.1.
Regarding `CNC(=O)c1ccc(N2CCN(Cc3cc(OC(F)F)c4nc(C)c(=O)[nH]c4c3)CC2)c(F)n1` [Example 13, 5-(4-((8-(difluoromethoxy)-2-methyl-3-oxo-3,4-dihydroquinoxalin-6-yl)methyl)piperazin-1-yl)-6-fluoro-N-methylpicolinamide], the AUC(0-t) in series [1] (iv, 2 mg/kg) amounted to 17000 ng·h/mL; in series [1] (po, 5 mg/kg) it was 33900 ng·h/mL; in series [2] (iv, 1 mg/kg), 7720 ng·h/mL; in series [2] (po, 5 mg/kg) it was 57900 ng·h/mL. The Cmax in series [1] (iv, 2 mg/kg) is 6560 ng/mL; in series [1] (po, 5 mg/kg), 11500 ng/mL; in series [2] (iv, 1 mg/kg) it was 2730 ng/mL; in series [2] (po, 5 mg/kg) it was 5810 ng/mL. The half-life was 1.9 h in series [1] (iv, 2 mg/kg); 2.9 h in series [1] (po, 5 mg/kg); 3.2 h in series [2] (iv, 1 mg/kg); 4.4 h in series [2] (po, 5 mg/kg). For the same compound, the IC50 with MDA-MB-436 cells amounted to 3.5 nM; at PARP1 it was 0.713 nM; on PARP2, 183 nM; in the series with DLD-1 BRCA2(-/-) cells, 1.3 nM. Besides, at PARP1, the “Selectivity PARP2/PARP1” value came out at 256.6.
Take `CNC(=O)c1ccc(C2=CCN(Cc3cc(OC(F)F)c4nc(C)c(=O)[nH]c4c3)CC2)c(F)n1` [Example 15, 1'-((8-(difluoromethoxy)-2-methyl-3-oxo-3,4-dihydroquinoxalin-6-yl)methyl)-2-fluoro-N-methyl-1',2',3',6'-tetrahydro-[3,4'-bipyridine]-6-carboxamide]: the AUC(0-t) in series [1] (iv, 2 mg/kg) was 75300 ng·h/mL; in series [1] (po, 5 mg/kg) it was 189000 ng·h/mL; in series [2] (iv, 1 mg/kg) it was 6060 ng·h/mL; in series [2] (po, 5 mg/kg) it was 31600 ng·h/mL. Also, the Cmax amounted to 13600 ng/mL in series [1] (iv, 2 mg/kg); 19000 ng/mL in series [1] (po, 5 mg/kg); 1560 ng/mL in series [2] (iv, 1 mg/kg); 3630 ng/mL in series [2] (po, 5 mg/kg). The half-life in series [1] (iv, 2 mg/kg) was 3.8 h; in series [1] (po, 5 mg/kg), 4.2 h; in series [2] (iv, 1 mg/kg), 4.1 h; in series [2] (po, 5 mg/kg), 4.5 h. Besides, the IC50 in the series with MDA-MB-436 cells is 1.3 nM; at PARP1 it was 0.6 nM; at PARP2, 137 nM; with DLD-1 BRCA2(-/-) cells, 4.1 nM. On PARP1, the “Selectivity PARP2/PARP1” value is 248.4.
For `Cc1nc2c(OC(F)F)cc(CN3CC=C(c4ccc(C(=O)NC5CC5)nc4F)CC3)cc2[nH]c1=O` [Example 42, N-cyclopropyl-1'-((8-(difluoromethoxy)-2-methyl-3-oxo-3,4-dihydroquinoxalin-6-yl)methyl)-2-fluoro-1',2',3',6'-tetrahydro-[3,4'-bipyridine]-6-carboxamide], the AUC(0-t) in series [1] (iv, 2 mg/kg) is 18100 ng·h/mL; in series [1] (po, 5 mg/kg) it was 61500 ng·h/mL. Besides, the Cmax in series [1] (iv, 2 mg/kg) stood at 8180 ng/mL; in series [1] (po, 5 mg/kg), 15100 ng/mL. The half-life in series [1] (iv, 2 mg/kg) is 2.5 h; in series [1] (po, 5 mg/kg), 2.5 h. The IC50 in the series on MDA-MB-436 cells worked out at 0.3 nM; on PARP1, 0.9 nM; at PARP2 it was 221 nM; with DLD-1 BRCA2(-/-) cells it was 7 nM. Besides, on PARP1, the “Selectivity PARP2/PARP1” value was 239.7.
With `CNC(=O)c1ccc(N2CCN(Cc3cc(OC(F)F)c4nc(C)c(=O)[nH]c4c3)CC2)c(C)n1` [Example 52, 5-(4-((8-(difluoromethoxy)-2-methyl-3-oxo-3,4-dihydroquinoxalin-6-yl)methyl)piperazin-1-yl)-N,6-dimethylpicolinamide], the AUC(0-t) in series [1] (iv, 2 mg/kg) stood at 17800 ng·h/mL; in series [1] (po, 5 mg/kg), 67100 ng·h/mL; in series [2] (iv, 1 mg/kg), 3520 ng·h/mL; in series [2] (po, 5 mg/kg), 31100 ng·h/mL. The Cmax in series [1] (iv, 2 mg/kg) came out at 7220 ng/mL; in series [1] (po, 5 mg/kg), 10700 ng/mL; in series [2] (iv, 1 mg/kg) it was 1190 ng/mL; in series [2] (po, 5 mg/kg) it was 2580 ng/mL. Besides, the half-life was 2.5 h in series [1] (iv, 2 mg/kg); 2.8 h in series [1] (po, 5 mg/kg); 3.5 h in series [2] (iv, 1 mg/kg); 3.8 h in series [2] (po, 5 mg/kg). The IC50 in the series on MDA-MB-436 cells is 1.4 nM; in the series with DLD-1 BRCA2(-/-) cells, 2.2 nM.
In the case of `CNC(=O)c1ccc(N2CCN(Cc3cc(OC4CCCC4)c4nc(C)c(=O)[nH]c4c3)CC2)c(F)n1` [Example 71, 5-(4-((8-(cyclopentoxy)-2-methyl-3-oxo-3,4-dihydroquinoxalin-6-yl)methyl)piperazin-1-yl)-6-fluoro-N-methylpyridine amide], the IC50 in the series on MDA-MB-436 cells was found to be 9.3 nM; on PARP1, 1.5 nM; against PARP2, 1290 nM; with DLD-1 BRCA2(-/-) cells it was 12.3 nM. The “Selectivity PARP2/PARP1” value on PARP1 amounted to 873.7.
Taken in the same sequence, the figures for `CNC(=O)c1ccc(N2CCN(Cc3cc(OC4CCCCC4)c4nc(C)c(=O)[nH]c4c3)CC2)c(F)n1` [Example 72, 5-(4-((8-(cyclohexyloxy)-2-methyl-3-oxo-3,4-dihydroquinoxalin-6-yl)methyl)piperazin-1-yl)-6-fluoro-N-methylpyridine amide] were 12 nM, 1.3 nM, 992 nM, 9.1 nM and 756.9.
